Results reported in patent US20240315244A1, “ANTIVIRAL COATING AGENT, ANTIVIRAL AGENT, LAMINATED BODY, AND PACKAGE OR CONTAINER” (National Institute for Materials Science, priority 2021, published 2024).

Test: solubility in organic solvents
Type: physicochemical

## O=C(OCC1OC(OC(=O)c2cc(O)c(O)c(OC(=O)c3cc(O)c(O)c(O)c3)c2)C(OC(=O)c2cc(O)c(O)c(OC(=O)c3cc(O)c(O)c(O)c3)c2)C(OC(=O)c2cc(O)c(O)c(OC(=O)c3cc(O)c(O)c(O)c3)c2)C1OC(=O)c1cc(O)c(O)c(OC(=O)c2cc(O)c(O)c(O)c2)c1)c1cc(O)c(O)c(OC(=O)c2cc(O)c(O)c(O)c2)c1 (centres unmarked) [tannic acid, Tannic acid]
low-polarity solvents, such as ethyl acetate
  solubility in low-polarity solvents: insoluble
Polar solvents, such as NPM or MEK
  solubility in polar solvents: soluble
